Structures can show the parent of a compound that is named as a salt.
Tests used:
[1] = target: T1, Human fibrinogen receptor (αIIbβ3) (Homo sapiens, UniProt P05106+P08514); experiment: Purified IIb/IIIa receptor assay (solid phase receptor assay, competition with biotinylated vitronectin); type: binding; settings: read-out: IIb/IIIa IC50
T1 construct: Human fibrinogen receptor (αIIbβ3) was purified from outdated platelets; from tissue; host or cells: outdated human platelets
Method in brief: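 Competition format: 1 nM biotinylated vitronectin plus test compound (highest 1.0×10^−4 M), 2 h at room temperature on wells coated with platelet-derived αIIbβ3. Buffer was TBS containing 1.0 mM Ca, Mg, Mn, pH 7.4. HRP anti-biotin readout at 450 nm; normalized to maximum binding, four-parameter curve fit.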

[2] = target: T2, Human vitronectin receptor (αvβ3) (Homo sapiens, UniProt P05106+P06756); experiment: Vitronectin adhesion assay (solid phase receptor assay, competition with biotinylated vitronectin); type: binding; settings: read-out: AvB3 IC50
T2 construct: Human vitronectin receptor (αvβ3) was purified from human placenta; from tissue; host or cells: human placenta
Method in brief: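 Purified human αvβ3 coated overnight at 4 °C in TBS with 1.0 mM Ca++, Mg++, Mn++, pH 7.4; compounds (top final 1.0×10^−4 M) competed with 1 nM biotinylated vitronectin for 2 h at room temperature. Bound ligand detected by HRP anti-biotin/OPD at A450; values normalized to no-competitor controls, four-parameter curve fit.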

Structure (SMILES)	IC50 [1]	IC50 [2]
O=C(O)CC(NC(=O)CNC(=O)c1cccc(NC(=O)NCc2nc3ccccc3[nH]2)c1)c1cc(Cl)cc(Cl)c1 (stereo not drawn) [Example 272, β-[[2-[[[3-[[[[(1H-benzimidazol-2-yl)methyl)amino]carbonyl]amino]phenyl]carbonyl]amino]acetyl]amino]-3,5-dichlorobenzenepropanoic acid, trifluoroacetate salt]	8210 nM	893 nM
N=C(N)Nc1cc(C(=O)NCC(=O)NC(CC(=O)O)c2cc(Cl)cc(Br)c2)cc(C(F)(F)F)c1 (racemic) [Example 216, (±)β-[[2-[[[3-[(aminoiminomethyl)amino]-5-(trifluoromethyl)phenyl]carbonyl]amino]acetyl]amino]-3-bromo-5-chlorobenzenepropanoic acid, trifluoroacetate salt]	326 nM	1 nM
C#C[C@H](CC(=O)O)NC(=O)CNC(=O)c1ccc(Cl)c(NC(=N)N)c1 [Example 173, 3S-[[2-[[[3-[(aminoiminomethyl)amino]-4-chlorophenyl]carbonyl]amino]acetyl]amino]-4-pentynoic acid, trifluoroacetate salt]	17.4 nM	0.5 nM
CC(CC(=O)O)NC(=O)CNC(=O)c1cccc(NC(=O)NCc2cc(Cl)cc(Cl)c2)c1 (centres unmarked) [Example 274, 3-[[2-[[[3-[[[[(3,5-dichlorophenyl)methyl]amino]carbonyl]amino]phenyl]carbonyl]amino]acetyl]amino]butanoic acid]	21200 nM	31.1 nM
CCN/C(=N\C)Nc1cccc(C(=O)NCC(=O)NC(CC(=O)O)c2cc(Cl)cc(Cl)c2)c1 (racemic) [Example 295, (±)3,5-dichloro-β-[[2-[[[3-[[(ethylamino)(methylimino)methyl]amino]phenyl]carbonyl]amino]acetyl]amino]benzenepropanoic acid, trifluoroacetate salt]	4560 nM	144 nM
CCOC(=O)CC(NC(=O)CNC(=O)c1cccc(NC(=N)N)c1)c1ccc2c(c1)OCO2 (racemic) [Example 5, (±)ethyl β-[[2-[[[3-[(aminoiminomethyl)amino]phenyl]carbonyl]amino]acetyl]amino]-1,3-benzodioxole-5-propanoate, trifluoroacetate salt]	3150 nM	227 nM
CCOC(=O)CC(NC(=O)CNC(=O)c1cccc(NC(=O)NCc2ccccc2)c1)c1ccc2c(c1)OCO2 (stereo not drawn) [Example 121, ethyl β-[[2-[[[3-[[[(phenylmethyl)amino]carbonyl]amino]phenyl]carbonyl]amino]acetyl]amino]-1,3-benzodioxole-5-propanoate]	> 100000 nM	2840 nM
N=C(N)Nc1cccc(C(=O)NCC(=O)NC(CC(=O)O)c2cc(N)ccc2O)c1 (racemic) [Example 234, (±)5-amino-β-[[2-[[[3-[(aminoiminomethyl)amino]phenyl]carbonyl]amino]acetyl]amino]-2-hydroxybenzenepropanoic acid, bis(trifluoroacetate)salt, monohydrate]	830 nM	89.3 nM
N=C(N)Nc1cccc(C(=O)NCC(=O)NC(CC(=O)O)c2cc(Cl)c(O)c(Cl)c2)c1 (stereo not drawn) [Example 277, β-[[2-[[[3-[(aminoiminomethyl)amino]phenyl]carbonyl]amino]acetyl]amino]-3,5-dichloro-4-hydroxybenzenepropanoic acid, trifluoroacetate salt]	198 nM	1.41 nM
N=C(N)NCc1cccc(C(=O)NCC(=O)NC(CC(=O)O)c2cccnc2)c1 (racemic) [Example 85, (±)β-[[2-[[[3-[[(aminoiminomethyl)amino]methyl]phenyl]carbonyl]amino]acetyl]amino]pyridine-3-propanoic acid, bis(trifluoroacetate)salt]	8.07 nM	6.65 nM

Reference: patent publication US6831199B1, “Pyrimidine compounds and derivatives thereof” (G. D. Searle & Co., priority 1995, dated 2004)
